From ChEMBL document CHEMBL5506002, “The discovery of potent USP2/USP8 dual-target inhibitors for the treatment of breast cancer via structure guided optimization of ML364” (Eur J Med Chem, 2024) come the findings set out here.

The nature of series [1]: in vitro. The conditions noted are these: mouse, plasma.
Description: Stability in mouse plasma assessed as compound remaining measured after 30 mins
For series [2], the target named is T1, Ubiquitin carboxyl-terminal hydrolase 8 (Homo sapiens, UniProt P40818).
T1 sequence (P40818 whole entry): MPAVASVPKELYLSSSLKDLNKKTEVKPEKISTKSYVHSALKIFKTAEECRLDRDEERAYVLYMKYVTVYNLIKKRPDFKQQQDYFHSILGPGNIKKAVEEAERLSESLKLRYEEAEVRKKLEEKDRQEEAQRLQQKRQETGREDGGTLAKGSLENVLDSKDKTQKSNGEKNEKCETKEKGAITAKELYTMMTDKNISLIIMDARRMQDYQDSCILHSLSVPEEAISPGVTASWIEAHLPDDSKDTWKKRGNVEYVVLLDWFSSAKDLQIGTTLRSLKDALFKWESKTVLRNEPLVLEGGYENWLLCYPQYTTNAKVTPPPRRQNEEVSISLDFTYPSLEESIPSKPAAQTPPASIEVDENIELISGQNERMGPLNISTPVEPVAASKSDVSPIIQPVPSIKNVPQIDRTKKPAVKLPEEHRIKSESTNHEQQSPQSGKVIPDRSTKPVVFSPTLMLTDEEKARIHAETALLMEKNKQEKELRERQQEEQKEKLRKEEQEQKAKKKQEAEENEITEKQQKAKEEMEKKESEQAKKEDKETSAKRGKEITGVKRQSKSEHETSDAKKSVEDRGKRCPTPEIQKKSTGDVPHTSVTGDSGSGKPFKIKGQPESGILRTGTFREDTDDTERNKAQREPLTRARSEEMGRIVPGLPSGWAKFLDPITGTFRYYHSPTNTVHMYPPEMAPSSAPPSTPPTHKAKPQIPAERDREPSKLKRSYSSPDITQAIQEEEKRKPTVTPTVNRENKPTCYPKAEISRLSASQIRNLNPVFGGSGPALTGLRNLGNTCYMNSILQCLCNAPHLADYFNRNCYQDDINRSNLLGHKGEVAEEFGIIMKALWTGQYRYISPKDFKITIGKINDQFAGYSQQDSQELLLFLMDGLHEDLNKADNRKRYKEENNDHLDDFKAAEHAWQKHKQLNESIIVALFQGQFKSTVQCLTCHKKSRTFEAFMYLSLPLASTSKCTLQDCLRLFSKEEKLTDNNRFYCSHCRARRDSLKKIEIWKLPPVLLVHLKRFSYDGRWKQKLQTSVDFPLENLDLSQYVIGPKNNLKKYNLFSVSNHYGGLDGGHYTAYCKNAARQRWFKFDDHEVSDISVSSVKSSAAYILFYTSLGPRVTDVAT
In words: Inhibition of N-terminal His6 tagged USP8 (734 to 1110 residues) (unknown origin) expressed in Escherichia coli BL21 (DE3) cells using ubiquitin-rhodamine-110 as substrate preincubated with compound for 30 mins followed by substrate addition measured after 30 mins by fluorometric assay.

The subject of the next series is MCF7. In words: Antiproliferative activity against human MCF7 cells assessed as inhibition of cell growth incubated for 72 hrs by MTT assay. It is filed as functional, cell-based. The conditions noted are these: MCF7, 72 h.
The nature of series [3]: in vitro. The following applies: mouse, microsomes.
Description: Stability in mouse microsomes assessed as compound remaining measured after 30 mins
For series [4], the target named is T2, Ubiquitin carboxyl-terminal hydrolase 2 (Homo sapiens, UniProt O75604).
T2 sequence (O75604 whole entry): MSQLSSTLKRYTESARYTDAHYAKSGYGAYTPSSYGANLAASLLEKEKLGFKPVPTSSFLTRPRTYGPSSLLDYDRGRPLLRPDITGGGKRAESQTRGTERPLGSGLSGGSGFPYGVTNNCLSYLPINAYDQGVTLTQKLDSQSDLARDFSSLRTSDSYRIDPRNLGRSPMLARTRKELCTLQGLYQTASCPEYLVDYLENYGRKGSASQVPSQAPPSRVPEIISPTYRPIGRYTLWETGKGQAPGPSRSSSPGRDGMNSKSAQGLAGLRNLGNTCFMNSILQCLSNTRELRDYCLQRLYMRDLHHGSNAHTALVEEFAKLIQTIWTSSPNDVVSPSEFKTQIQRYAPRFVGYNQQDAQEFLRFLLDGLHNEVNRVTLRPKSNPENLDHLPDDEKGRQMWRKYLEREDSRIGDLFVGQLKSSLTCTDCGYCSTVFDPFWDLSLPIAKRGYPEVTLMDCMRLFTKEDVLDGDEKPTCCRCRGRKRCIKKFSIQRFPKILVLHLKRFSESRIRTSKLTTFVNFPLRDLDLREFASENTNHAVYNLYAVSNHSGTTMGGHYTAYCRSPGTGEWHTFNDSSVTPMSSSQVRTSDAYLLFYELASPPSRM
The series can be described thus: Inhibition of USP2 (267 to 599 residues) (unknown origin) expressed in Escherichia coli BL21 (DE3) cells using ubiquitin-rhodamine-110 as substrate preincubated with compound for 30 mins followed by substrate addition measured after 30 mins by fluorometric assay.

Series [5] in a line: in vitro. The conditions noted are these: human, microsomes.
Description: Stability in human microsomes assessed as compound remaining measured after 30 mins
A short description of series [6]: Cytotoxicity against human MCF-10A cells assessed as inhibition of cell growth incubated for 72 hrs by MTT assay. In kind it is toxicity, cell-based. A general note: Tetrazolium assays rely on reduction of a dye to a coloured formazan, in cell work by metabolically active cells.
Series [7] concerns the target T1, Ubiquitin carboxyl-terminal hydrolase 8. The series can be described thus: Inhibition of USP8 (unknown origin) using Di-Ub IQF K48-02 as substrate preincubated for 30 mins followed by substrate addition by high-throughput assay.
Series [8] deals with T2, Ubiquitin carboxyl-terminal hydrolase 2. The series can be described thus: Inhibition of USP2 (unknown origin) using Di-Ub IQF K48-4 as substrate preincubated for 10 mins followed by substrate addition by high-throughput assay.

Broadly, the share remaining is the share of the starting amount still present when the sample was taken. A lower share remaining goes with a greater loss. In general, IC50 refers to the concentration that gives 50% inhibition. Consider `Cc1ccc(S(=O)(=O)Nc2cc(C(F)(F)F)ccc2C(=O)Nc2nc(-c3ccccc3)cs2)cc1`, for which the fraction remaining at 0.5 h in the series “in vitro [1]” is greater than 90%; in the series “in vitro [3]”, 72%; in “in vitro [5]”, greater than 90%. Moreover, the results for the IC50 (in series [2]; in the series on MCF7; in [4]) were 4.7 µM, 9.3 µM and 3.6 µM, respectively. Besides, the IC50 at 72 h in series [6] was found to be 14.5 µM.

Turning to `CCCCS(=O)(=O)Cc1nc2c(nc1CS(=O)(=O)CCCC)C(=O)c1ccccc1C2=O`, the 50% inhibitory concentration (IC50) in [7] is less than 100 nM; in [8], less than 800 nM.
